Values quoted from earlier work, collected in article PMC7395068, “The evolution of strategies to minimise the risk of human drug-induced liver injury (DILI) in drug discovery and development” (Archives of Toxicology, 2020).
Counter-ions that a name gives are not always drawn. Like-named read-outs stand apart in the source and are kept apart here.

Conditions: cited from earlier work
[1] = binary in vivo DILI call given beside the severity category, ref Chen 2016
[2] = human DILI concern category (LTKB DILIrank), ref Chen 2016
[3] = binary in vivo human DILI call, ref Chen 2016
[4] = human DILI, LTKB DILIrank category, ref Chen 2016
[5] = LTKB DILIrank category, ref Chen 2016
[6] = binary human DILI assignment, ref Chen 2016

Row | Compound | DILI +VE (5-8), DILI -VE (-4) [1] | DILI severity category [2] | DILI +VE (5-8), DILI -VE (-4) (in vivo) | DILI severity category (in vivo) | further results
1 | N=C(N)c1ccc(OCCCCCOc2ccc(C(=N)N)cc2)cc1 [pentamidine] | +VE | vLess-DILI-Concern | – | – | –
2 | COC(=O)[C@H](c1ccccc1)[C@H]1CCCCN1 [dexmethylphenidate] | – | – | +VE | vLess-DILI-Concern | –
3 | CN[C@@H]1CCc2[nH]c3ccc(C(N)=O)cc3c2C1 [frovatriptan] | – | – | – | – | DILI +VE (5-8), DILI -VE (-4) [3]: -VE; DILI severity category [4]: vNo-DILI-Concern
4 | CCC1=C[C@@H]2CN(C1)Cc1c([nH]c3ccccc13)[C@@](C(=O)OC)(c1cc3c(cc1OC)N(C)[C@H]1[C@@](O)(C(=O)OC)[C@H](OC(C)=O)[C@]4(CC)C=CCN5CC[C@]31[C@@H]54)C2 [vinorelbine] | – | – | – | – | DILI severity category [5]: Ambiguous DILI-concern; DILI +VE (5-8), DILI -VE (-4) [6]: -VE
5 | O=C(O)COc1nn(Cc2ccccc2)c2ccccc12 [bendazac] | – | – | – | – | DILI severity category [5]: vMost-DILI-Concern
6 | CC(=O)OC[C@H]1O[C@@H]([S-])[C@H](OC(C)=O)[C@@H](OC(C)=O)[C@@H]1OC(C)=O.CCP(CC)CC.[Au+] [auranofin] | – | – | – | – | DILI severity category [5]: vLess-DILI-Concern
7 | CN1C(=O)CC(C)(c2ccccc2)C1=O (centres unmarked) [methsuximide] | -VE | vNo-DILI-Concern | – | – | –
8 | Cc1cc(Br)c(O)c2ncccc12 [tilbroquinol] | +VE | vMost-DILI-Concern | – | – | –
9 | CCCCCCCCCC(=O)N[C@@H](Cc1c[nH]c2ccccc12)C(=O)N[C@H](CC(N)=O)C(=O)N[C@@H](CC(=O)O)C(=O)N[C@@H]1C(=O)NCC(=O)N[C@@H](CCCN)C(=O)N[C@@H](CC(=O)O)C(=O)N[C@H](C)C(=O)N[C@@H](CC(=O)O)C(=O)NCC(=O)N[C@H](CO)C(=O)N[C@@H]([C@H](C)CC(=O)O)C(=O)N[C@@H](CC(=O)c2ccccc2N)C(=O)O[C@@H]1C [daptomycin] | – | – | – | – | DILI +VE (5-8), DILI -VE (-4) [3]: +VE; DILI severity category [4]: vLess-DILI-Concern
10 | CCCCCC(=O)O[C@]1(C(C)=O)CC[C@H]2[C@@H]3CCC4=CC(=O)CC[C@]4(C)[C@H]3CC[C@@]21C [hydroxyprogesterone caproate] | – | – | – | – | DILI +VE (5-8), DILI -VE (-4) [3]: -VE; DILI severity category [4]: Ambiguous DILI-concern
11 | Nc1nc(=O)c2c([nH]1)NC[C@H](CNc1ccc(C(=O)N[C@@H](CCC(=O)O)C(=O)O)cc1)N2C=O [Levoleucovorin] | – | – | -VE | vNo-DILI-Concern | –
12 | C#CCC(Cc1cnc2nc(N)nc(N)c2n1)c1ccc(C(=O)N[C@@H](CCC(=O)O)C(=O)O)cc1 (some centres unmarked) [pralatrexate] | -VE | Ambiguous DILI-concern | – | – | –
13 | CN1CCN(C2=Nc3ccccc3Oc3ccc(Cl)cc32)CC1 [loxapine] | – | – | -VE | Ambiguous DILI-concern | –
14 | O=C(CCCCC(=O)Nc1c(I)cc(I)c(C(=O)O)c1I)Nc1c(I)cc(I)c(C(=O)O)c1I [iodipamide meglumine] | – | – | – | – | DILI +VE (5-8), DILI -VE (-4) [3]: -VE; DILI severity category [4]: vNo-DILI-Concern
15 | Cn1c(CCCC(=O)O)nc2cc(N(CCCl)CCCl)ccc21 [bendamustine] | – | – | -VE | vNo-DILI-Concern | –
16 | CC(C)(CO)[C@@H](O)C(=O)NCCCO [dexpanthenol] | – | – | -VE | vNo-DILI-Concern | –
17 | O=C(O)CN(CCN(CC(=O)O)CC(=O)O)CCN(CC(=O)O)CC(=O)O [pentetic acid] | -VE | vNo-DILI-Concern | – | – | –
18 | CO[C@H]1O[C@H](COS(=O)(=O)O)[C@@H](O[C@@H]2O[C@@H](C(=O)O)[C@@H](O[C@H]3O[C@H](COS(=O)(=O)O)[C@@H](O[C@@H]4O[C@H](C(=O)O)[C@@H](O[C@H]5O[C@H](COS(=O)(=O)O)[C@@H](O)[C@H](O)[C@H]5NS(=O)(=O)O)[C@H](O)[C@H]4O)[C@H](OS(=O)(=O)O)[C@H]3NS(=O)(=O)O)[C@H](O)[C@H]2OS(=O)(=O)O)[C@H](O)[C@H]1NS(=O)(=O)O [fondaparinux sodium] | – | – | – | – | DILI +VE (5-8), DILI -VE (-4) [3]: +VE; DILI severity category [4]: vLess-DILI-Concern
19 | C#C[C@]1(OC(C)=O)CC[C@H]2[C@@H]3CCC4=CC(=O)CC[C@@H]4[C@H]3CC[C@@]21C [norethindrone acetate] | -VE | vNo-DILI-Concern | – | – | –
20 | COc1ccc(Cc2nccc3cc(OC)c(OC)cc23)cc1OC [papaverine] | – | – | +VE | vMost-DILI-Concern | –
21 | CC(C)C[C@H](NC(=O)[C@H](Cc1ccccc1)NC(=O)c1cnccn1)B(O)O [bortezomib] | – | – | – | – | DILI severity category [5]: vMost-DILI-Concern
22 | C=CC[N+]1([C@H]2C[C@H]3[C@@H]4CC[C@H]5C[C@H](O)[C@@H](N6CCOCC6)C[C@]5(C)[C@H]4CC[C@]3(C)[C@H]2OC(C)=O)CCCC1 [rocuronium] | – | – | -VE | vNo-DILI-Concern | –
23 | tinzaparin | -VE | Ambiguous DILI-concern | – | – | –
24 | CC1=NN(c2ccc(C)c(C)c2)C(=O)/C1=N\Nc1cccc(-c2cccc(C(=O)O)c2)c1O [eltrombopag olamine] | – | – | – | – | DILI +VE (5-8), DILI -VE (-4) [3]: +VE; DILI severity category [4]: vMost-DILI-Concern
25 | Cc1nnc2n1-c1ccc(Cl)cc1C(c1ccccc1)=NC2 [alprazolam] | – | – | +VE | vLess-DILI-Concern | –

Row | Compound | DILI +VE (5-8), DILI -VE (-4) [1] | DILI severity category [2] | DILI +VE (5-8), DILI -VE (-4) (in vivo) | DILI severity category (in vivo) | further results
26 | CCOC(=O)Nc1ccc2c(c1)N(C(=O)CCN1CCOCC1)c1ccccc1S2 [moricizine] | -VE | Ambiguous DILI-concern | – | – | –
27 | COc1cc2c(cc1OC)[C@@H](Cc1cc(OC)c(OC)c(OC)c1)[N+](C)(CCCOC(=O)CC/C=C/CCC(=O)OCCC[N+]1(C)CCc3cc(OC)c(OC)cc3[C@H]1Cc1cc(OC)c(OC)c(OC)c1)CC2 (some centres unmarked) [mivacurium] | -VE | vNo-DILI-Concern | – | – | –
28 | CC[C@H](C)[C@H]1O[C@]2(CC[C@@H]1C)C[C@@H]1C[C@@H](C/C=C(\C)[C@@H](O[C@H]3C[C@H](OC)[C@@H](O[C@H]4C[C@H](OC)[C@@H](O)[C@H](C)O4)[C@H](C)O3)[C@@H](C)/C=C/C=C3\CO[C@@H]4[C@H](O)C(C)=C[C@@H](C(=O)O1)[C@]34O)O2 [ivermectin] | – | – | – | – | DILI +VE (5-8), DILI -VE (-4) [3]: +VE; DILI severity category [4]: vLess-DILI-Concern
29 | NC(=O)[C@@H]1CCCN1C(=O)[C@H](Cc1cnc[nH]1)NC(=O)[C@@H]1CCC(=O)N1 [protirelin] | – | – | -VE | vNo-DILI-Concern | –
30 | CCCC(C)(COC(N)=O)COC(N)=O [meprobamate] | – | – | – | – | DILI +VE (5-8), DILI -VE (-4) [3]: -VE; DILI severity category [4]: vNo-DILI-Concern
31 | O=[N+]([O-])[O-].O=[N+]([O-])[O-].O=[N+]([O-])[O-].[Ga+3] [gallium nitrate] | – | – | – | – | DILI +VE (5-8), DILI -VE (-4) [3]: -VE; DILI severity category [4]: Ambiguous DILI-concern
32 | CC[C@@]1(O)C(=O)OCc2c1cc1n(c2=O)Cc2cc3c(CN(C)C)c(O)ccc3nc2-1 [topotecan] | -VE | vNo-DILI-Concern | – | – | –
33 | CC(C)CN(C[C@@H](OP(=O)(O)O)[C@H](Cc1ccccc1)NC(=O)O[C@H]1CCOC1)S(=O)(=O)c1ccc(N)cc1 [fosamprenavir] | – | – | – | – | DILI +VE (5-8), DILI -VE (-4) [3]: -VE; DILI severity category [4]: Ambiguous DILI-concern
34 | gemtuzumab ozogamicin | – | – | – | – | DILI +VE (5-8), DILI -VE (-4) [3]: +VE; DILI severity category [4]: vMost-DILI-Concern
35 | O=C1O[C@H]([C@@H](O)CO)C(O)=C1O [vitamin c] | – | – | – | – | DILI severity category [5]: vNo-DILI-Concern; DILI +VE (5-8), DILI -VE (-4) [6]: -VE
36 | enoxaparin | – | – | +VE | vLess-DILI-Concern | –
37 | ecallantide | – | – | -VE | vNo-DILI-Concern | –
38 | CC1(C)C(/C=C/C=C/C=C/C=C2\N(CCCCS(=O)(=O)O)c3ccc4ccccc4c3C2(C)C)=[N+](CCCCS(=O)(=O)[O-])c2ccc3ccccc3c21 [indocyanine green] | – | – | – | – | DILI +VE (5-8), DILI -VE (-4) [3]: -VE; DILI severity category [4]: vNo-DILI-Concern
39 | CCCC(=O)Nc1ccc(OCC(O)CNC(C)C)c(C(C)=O)c1 (centres unmarked) [acebutolol] | – | – | – | – | DILI severity category [5]: vLess-DILI-Concern
40 | CC(C)(O)c1ccccc1CC[C@@H](SCC1(CC(=O)O)CC1)c1cccc(/C=C/c2ccc3ccc(Cl)cc3n2)c1 [montelukast] | – | – | +VE | vLess-DILI-Concern | –
41 | Nc1nc(N)c2nc(-c3ccccc3)c(N)nc2n1 [triamterene] | +VE | vLess-DILI-Concern | – | – | –
42 | C[C@H](N)C(=O)N[C@@H](C)C(=O)N[C@H]1[C@@H]2CN(c3nc4c(cc3F)c(=O)c(C(=O)O)cn4-c3ccc(F)cc3F)C[C@@H]21 [alatrofloxacin mesylate] | – | – | – | – | DILI severity category [5]: vMost-DILI-Concern
43 | romiplostim | – | – | -VE | vNo-DILI-Concern | –
44 | CCCCCNC(=N)N/N=C/c1c[nH]c2ccc(OC)cc12 [tegaserod] | -VE | Ambiguous DILI-concern | – | – | –
45 | CCCCCCCCNC(C)C(O)c1ccc(SC(C)C)cc1 (centres unmarked) [sulcotidil] | – | – | +VE | vMost-DILI-Concern | –
46 | CONC(=N)c1ccc(-c2ccc(-c3ccc(C(=N)NOC)cc3)o2)cc1 [pafuramidine] | +VE | vMost-DILI-Concern | – | – | –
47 | O=C1c2cccc3c2[C@H](CCC3)CN1[C@@H]1CN2CCC1CC2 [palonosetron] | -VE | Ambiguous DILI-concern | – | – | –
48 | Cc1cc(C#N)cc(C)c1Oc1nc(Nc2ccc(C#N)cc2)nc(N)c1Br [etravirine] | – | – | – | – | DILI +VE (5-8), DILI -VE (-4) [3]: +VE; DILI severity category [4]: vMost-DILI-Concern
49 | CNC(=O)c1cnn(-c2nc(N)c3ncn([C@@H]4O[C@H](CO)[C@@H](O)[C@H]4O)c3n2)c1 [regadenoson] | – | – | -VE | vNo-DILI-Concern | –
50 | CCC[C@H](N[C@@H](C)C(=O)N1[C@H](C(=O)O)C[C@@H]2CCCC[C@@H]21)C(=O)OCC [perindopril] | -VE | Ambiguous DILI-concern | – | – | –
